Experimental data taken from PMC9270327 (Communications Biology, 2022).
Like-named read-outs stand apart in the source and are kept apart here.

Legend:
[1] = molecular target: T1, recombinant human thrombin (Homo sapiens, UniProt P00734); assay: Enzyme inhibition assay with purified thrombin (Ki, dose-response); format: biochemical; conditions: for thrombin activity, Mean (Fig. 2c): normalized, 0 nM = 100
T1 construct: purchased R&D Systems (Minneapolis, MN, USA)
Excerpt: (§1) Recombinant human TMPRSS2 was purchased from Creative BioMart (New York, USA) or LSBio (Seattle, USA), factor Xa was obtained from Bio-Techne GmbH (Wiesbaden, Germany). Recombinant human thrombin and matriptase protein were purchased from R&D Systems (Minneapolis, MN, USA).

[2] = molecular target: T2, recombinant human matriptase (Homo sapiens, UniProt Q9Y5Y6); assay: Enzyme inhibition assay with purified matriptase (Ki, dose-response); format: biochemical; conditions: for matriptase activity, Mean (Fig. 2b): normalized, 0 nM = 100
T2 construct: purchased R&D Systems (Minneapolis, MN, USA)
T2 sequence (Q9Y5Y6 1-855): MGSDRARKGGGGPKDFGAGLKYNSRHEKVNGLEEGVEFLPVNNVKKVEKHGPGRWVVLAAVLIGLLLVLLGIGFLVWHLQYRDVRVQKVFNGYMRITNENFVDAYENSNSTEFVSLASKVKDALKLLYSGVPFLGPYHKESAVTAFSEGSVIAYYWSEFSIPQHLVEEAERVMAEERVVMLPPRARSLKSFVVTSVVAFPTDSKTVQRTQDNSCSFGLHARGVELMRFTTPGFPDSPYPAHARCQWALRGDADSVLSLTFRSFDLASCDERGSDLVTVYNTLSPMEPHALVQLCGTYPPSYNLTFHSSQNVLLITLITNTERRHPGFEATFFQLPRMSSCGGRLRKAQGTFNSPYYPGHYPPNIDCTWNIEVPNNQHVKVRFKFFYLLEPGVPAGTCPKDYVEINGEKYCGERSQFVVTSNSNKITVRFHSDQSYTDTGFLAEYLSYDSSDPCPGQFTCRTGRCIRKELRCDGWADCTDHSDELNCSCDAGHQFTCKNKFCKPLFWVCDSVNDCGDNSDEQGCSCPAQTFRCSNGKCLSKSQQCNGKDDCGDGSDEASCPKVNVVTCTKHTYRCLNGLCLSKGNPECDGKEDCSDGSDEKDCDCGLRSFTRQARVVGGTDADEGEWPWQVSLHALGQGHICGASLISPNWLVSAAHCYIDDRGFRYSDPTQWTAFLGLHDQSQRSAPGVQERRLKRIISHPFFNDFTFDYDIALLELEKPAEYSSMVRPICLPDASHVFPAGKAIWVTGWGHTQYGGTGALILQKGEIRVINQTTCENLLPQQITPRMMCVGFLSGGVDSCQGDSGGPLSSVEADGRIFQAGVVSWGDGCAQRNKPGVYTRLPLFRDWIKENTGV

[3] = test system: lentiviral pseudoparticles carrying SARS-CoV-2 Beta (B.1.351) spike, Caco-2 cells; format: cell-based; conditions: for SARS-CoV-2 spike driven entry, Mean (0 nM = 100): Fig. 5c
[4] = molecular target: T3, factor Xa (Homo sapiens, UniProt P00742); assay: Enzyme inhibition assay with purified factor Xa (Ki, dose-response); format: biochemical; conditions: for factor Xa activity, Mean (Fig. 2d): normalized, 0 nM = 100
T3 construct: purchased Bio-Techne GmbH (Wiesbaden, Germany)
T3 sequence (P00742 235-488 limits assumed): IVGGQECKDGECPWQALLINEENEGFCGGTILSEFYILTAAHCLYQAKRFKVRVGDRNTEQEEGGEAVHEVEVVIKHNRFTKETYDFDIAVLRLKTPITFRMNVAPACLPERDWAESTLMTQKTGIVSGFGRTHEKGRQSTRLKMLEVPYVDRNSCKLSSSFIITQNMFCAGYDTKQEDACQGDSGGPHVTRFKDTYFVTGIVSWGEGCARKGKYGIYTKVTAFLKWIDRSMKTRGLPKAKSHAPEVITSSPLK
T3 sequence (P00742 41-179 partner limits assumed): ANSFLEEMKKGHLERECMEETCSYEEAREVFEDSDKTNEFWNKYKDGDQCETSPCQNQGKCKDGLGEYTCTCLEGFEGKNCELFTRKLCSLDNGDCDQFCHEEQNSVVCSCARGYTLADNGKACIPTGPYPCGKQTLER
Excerpt: as §1

[5] = molecular target: TMPRSS2 (Homo sapiens, UniProt O15393); format: biochemical; design: purchased Creative BioMart (New York, USA) or LSBio (Seattle, USA); conditions: for TMPRSS2 activity, Mean (Fig. 2a): normalized, 0 nM = 100
Sequence of TMPRSS2 (O15393 whole entry): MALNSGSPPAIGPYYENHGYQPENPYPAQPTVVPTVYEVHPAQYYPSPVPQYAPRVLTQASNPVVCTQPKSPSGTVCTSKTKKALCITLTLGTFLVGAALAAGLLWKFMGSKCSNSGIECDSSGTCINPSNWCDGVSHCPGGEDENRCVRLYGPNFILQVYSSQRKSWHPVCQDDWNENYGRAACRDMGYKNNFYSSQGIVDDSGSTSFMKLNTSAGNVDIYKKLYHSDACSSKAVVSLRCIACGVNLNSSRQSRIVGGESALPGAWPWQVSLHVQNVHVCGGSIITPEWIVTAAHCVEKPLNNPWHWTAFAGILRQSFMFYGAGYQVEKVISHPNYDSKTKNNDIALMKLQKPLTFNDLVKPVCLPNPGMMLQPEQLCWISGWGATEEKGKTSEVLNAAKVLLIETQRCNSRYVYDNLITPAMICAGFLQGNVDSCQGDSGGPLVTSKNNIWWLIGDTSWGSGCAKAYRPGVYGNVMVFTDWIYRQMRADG
Excerpt: as §1

[6] = test system: SARS-CoV-2 Alpha (B.1.1.7), Caco-2 cells; format: cell-based; conditions: for SARS-CoV-2 infection, Mean (0 nM = 100): Fig. 6c, VOC Alpha

Substance: ace-Arg-Pro-Arg-kbt [Compound 2]
- thrombin activity, Mean (Fig. 2c) ([1]; 10000 nM): 11.4518
- thrombin activity, Mean (Fig. 2c) ([1]; 100000 nM): -13.8043
- Ki ([1]; 30 min preincubation, substrate D-Phe-Homopro-Arg-pNA): 0.599 µM
- Selectivity index Thrombin ([1]; quotient Ki thrombin / Ki TMPRSS2): 158
- matriptase activity, Mean (Fig. 2b) ([2]; 0.1 nM): 101.198
- matriptase activity, Mean (Fig. 2b) ([2]; 0.2 nM): 106.445
- matriptase activity, Mean (Fig. 2b) ([2]; 1 nM): 70.3881
- matriptase activity, Mean (Fig. 2b) ([2]; 10 nM): 45.9032
- matriptase activity, Mean (Fig. 2b) ([2]; 100 nM): 8.529
- matriptase activity, Mean (Fig. 2b) ([2]; 1000 nM): 0.7667
- matriptase activity, Mean (Fig. 2b) ([2]; 50000 nM): -0.2875
- matriptase activity, Mean (Fig. 2b) ([2]; 500000 nM): -0.6229
- Ki ([2]; 30 min preincubation, substrate Boc-Gln-Ala-Arg-AMC): 0.0033 µM
- Selectivity index Matriptase ([2]; quotient Ki matriptase / Ki TMPRSS2): 0.9
- IC50 ([3]; Caco-2 cells, luciferase 2 days post transduction, read-out: IC50 pseudotyped lentivirus Beta): 0.434 µM
- SARS-CoV-2 spike driven entry, Mean (0 nM = 100) ([3]; compound 3.2 nM): 86.789
- SARS-CoV-2 spike driven entry, Mean (0 nM = 100) ([3]; compound 16 nM): 76.3745
- SARS-CoV-2 spike driven entry, Mean (0 nM = 100) ([3]; compound 80 nM): 81.347
- SARS-CoV-2 spike driven entry, Mean (0 nM = 100) ([3]; compound 400 nM): 58.1085
- SARS-CoV-2 spike driven entry, Mean (0 nM = 100) ([3]; compound 2000 nM): 24.7225
- SARS-CoV-2 spike driven entry, Mean (0 nM = 100) ([3]; compound 10000 nM): 3.543
- SARS-CoV-2 spike driven entry, Mean (0 nM = 100) ([3]; compound 50000 nM): 0.923
- factor Xa activity, Mean (Fig. 2d) ([4]; 0.02 nM): 109.27
- factor Xa activity, Mean (Fig. 2d) ([4]; 0.04 nM): 100.653
- factor Xa activity, Mean (Fig. 2d) ([4]; 0.2 nM): 101.827
- factor Xa activity, Mean (Fig. 2d) ([4]; 2 nM): 97.7797
- factor Xa activity, Mean (Fig. 2d) ([4]; 20 nM): 88.6416
- factor Xa activity, Mean (Fig. 2d) ([4]; 200 nM): 49.7393
- factor Xa activity, Mean (Fig. 2d) ([4]; 10000 nM): 7.702
- factor Xa activity, Mean (Fig. 2d) ([4]; 100000 nM): 2.742
- Ki ([4]; 30 min preincubation, substrate Bz-Ile-Glu-Gly-Arg-pNA): 0.107 µM
- Selectivity index Factor Xa ([4]; quotient Ki factor Xa / Ki TMPRSS2): 28.1
- TMPRSS2 activity, Mean (Fig. 2a) ([5]; 0.05 nM): 92
- TMPRSS2 activity, Mean (Fig. 2a) ([5]; 0.5 nM): 90.3158
- TMPRSS2 activity, Mean (Fig. 2a) ([5]; 5 nM): 62.9474
- TMPRSS2 activity, Mean (Fig. 2a) ([5]; 50 nM): 19.7895
- TMPRSS2 activity, Mean (Fig. 2a) ([5]; 500 nM): 3.789
- TMPRSS2 activity, Mean (Fig. 2a) ([5]; 5000 nM): 0.6316
- TMPRSS2 activity, Mean (Fig. 2a) ([5]; 50000 nM): 0.4211
- TMPRSS2 activity, Mean (Fig. 2a) ([5]; 500000 nM): -1.895
- Ki ([5]; 30 min preincubation, substrate Boc-Gln-Ala-Arg-AMC, Ki from IC50 by Cheng–Prusoff): 0.0038 µM
- fold more active than FOY-251 against isolated TMPRSS2 ([5]; ratio of Ki values): 2–3 fold
- SARS-CoV-2 infection, Mean (0 nM = 100) ([6]; compound 32 nM): 106.285
- SARS-CoV-2 infection, Mean (0 nM = 100) ([6]; compound 160 nM): 107.747
- SARS-CoV-2 infection, Mean (0 nM = 100) ([6]; compound 800 nM): 109.671
- SARS-CoV-2 infection, Mean (0 nM = 100) ([6]; compound 4000 nM): 112.829
- SARS-CoV-2 infection, Mean (0 nM = 100) ([6]; compound 20000 nM): 1.3092
- SARS-CoV-2 infection, Mean (0 nM = 100) ([6]; compound 100000 nM): -2.734
- IC50 ([6]; read-out: IC50 SARS-CoV-2 Alpha): ~20 µM
